In experiment [1] the test system is EC-83 nascent transcript (RNA, riboswitch) GUUCUCAACGGGGUGCCACGCGUACGCGUGCGCUGAGAAAAUACCCGUCGAACCUGAUCCGGAUAACGCCGGCGAAGGGAUUU
As to the kind of experiment: RNase H cleavage protection. As to conditions: 20 mM MgCl2, 20 mM NaCl (transcription buffer); stalled at pause site 83; Kswitch plot Figure 2D.

Experiment [2] has as its system 117-nt transcript without RNAP, Cy3-Cy5 dual-labeled (RNA, riboswitch, azido-uridine analog at 14) GUUCUCAACGGGGUGCCACGCGUACGCGUGCGCUGAGAAAAUACCCGUCGAACCUGAUCCGGAUAACGCCGGCGAAGGGAUUUGAGGCUCCUUCUCAAGUCCUUUGCCACUCUUUUU
As to the kind of experiment: smFRET. As to conditions: 20 mM MgCl2, 20 mM NaCl; tested at 1 mM TPP; no RNAP.

Experiment [3] has as its system EC-28, Cy3-Cy5 dual-labeled (RNA, riboswitch, azido-uridine analog at 14) GUUCUCAACGGGGUGCCACGCGUACGCG
As to the kind of experiment: smFRET. As to conditions: 20 mM MgCl2, 20 mM NaCl; tested at 1 mM TPP.

The test system of experiment [4] is EC-104, Cy3-Cy5 dual-labeled (RNA, riboswitch, azido-uridine analog at 14) GUUCUCAACGGGGUGCCACGCGUACGCGUGCGCUGAGAAAAUACCCGUCGAACCUGAUCCGGAUAACGCCGGCGAAGGGAUUUGAGGCUCCUUCUCAAGUCCUU
As to the kind of experiment: smFRET. As to conditions: 20 mM MgCl2, 20 mM NaCl; 1 mM TPP.

The test system of experiment [5] is EC-88 G37C, Cy3-Cy5 dual-labeled (RNA, riboswitch, azido-uridine analog at 14) GUUCUCAACGGGGUGCCACGCGUACGCGUGCGCUGACAAAAUACCCGUCGAACCUGAUCCGGAUAACGCCGGCGAAGGGAUUUGAGGC
As to the kind of experiment: smFRET. As to conditions: 20 mM MgCl2, 20 mM NaCl; tested at 1 mM TPP.

Experiment [6] deals with EC-117, Cy3-Cy5 dual-labeled (RNA, riboswitch, azido-uridine analog at 14) GUUCUCAACGGGGUGCCACGCGUACGCGUGCGCUGAGAAAAUACCCGUCGAACCUGAUCCGGAUAACGCCGGCGAAGGGAUUUGAGGCUCCUUCUCAAGUCCUUUGCCACUCUUUUU
As to the kind of experiment: smFRET. As to conditions: 20 mM MgCl2, 20 mM NaCl; 1 mM and 10 µM TPP.

Experiment [7] relates to EC-88 WT, Cy3-Cy5 dual-labeled (RNA, riboswitch, azido-uridine analog at 14) GUUCUCAACGGGGUGCCACGCGUACGCGUGCGCUGAGAAAAUACCCGUCGAACCUGAUCCGGAUAACGCCGGCGAAGGGAUUUGAGGC
As to the kind of experiment: smFRET. As to conditions: 20 mM MgCl2, 20 mM NaCl; 1 mM TPP.

Experiment [8] deals with EC-136, Cy3-Cy5 dual-labeled (RNA, riboswitch, azido-uridine analog at 14) GUUCUCAACGGGGUGCCACGCGUACGCGUGCGCUGAGAAAAUACCCGUCGAACCUGAUCCGGAUAACGCCGGCGAAGGGAUUUGAGGCUCCUUCUCAAGUCCUUUGCCACUCUUUUUUGAGGUGCAAAGUGUUAAA
As to the kind of experiment: smFRET. The following applies: 20 mM MgCl2, 20 mM NaCl; poor folding at 1 mM TPP; none at 10 µM TPP.

The structures appear in SMILES notation.

Turning to `Cc1ncc(C[n+]2csc(CCOP(=O)(O)OP(=O)(O)O)c2C)c(N)n1`, the binding result is “no” in experiment [1]; “no” in experiment [2]; “no” in experiment [3]; “yes” in experiment [4]; “no” in experiment [5]; “yes” in experiment [6]. Also, the binding result is reported as “yes” in experiment [7] and “weak” in experiment [8].

(Values after article PMC8609307 (2021).)
